For data set [1], the target named is T1, human soluble ENPP1 (Homo sapiens, UniProt P22413).
T1 construct: 20 ng of human soluble ENPP1
T1 sequence (P22413 103-925 limits assumed): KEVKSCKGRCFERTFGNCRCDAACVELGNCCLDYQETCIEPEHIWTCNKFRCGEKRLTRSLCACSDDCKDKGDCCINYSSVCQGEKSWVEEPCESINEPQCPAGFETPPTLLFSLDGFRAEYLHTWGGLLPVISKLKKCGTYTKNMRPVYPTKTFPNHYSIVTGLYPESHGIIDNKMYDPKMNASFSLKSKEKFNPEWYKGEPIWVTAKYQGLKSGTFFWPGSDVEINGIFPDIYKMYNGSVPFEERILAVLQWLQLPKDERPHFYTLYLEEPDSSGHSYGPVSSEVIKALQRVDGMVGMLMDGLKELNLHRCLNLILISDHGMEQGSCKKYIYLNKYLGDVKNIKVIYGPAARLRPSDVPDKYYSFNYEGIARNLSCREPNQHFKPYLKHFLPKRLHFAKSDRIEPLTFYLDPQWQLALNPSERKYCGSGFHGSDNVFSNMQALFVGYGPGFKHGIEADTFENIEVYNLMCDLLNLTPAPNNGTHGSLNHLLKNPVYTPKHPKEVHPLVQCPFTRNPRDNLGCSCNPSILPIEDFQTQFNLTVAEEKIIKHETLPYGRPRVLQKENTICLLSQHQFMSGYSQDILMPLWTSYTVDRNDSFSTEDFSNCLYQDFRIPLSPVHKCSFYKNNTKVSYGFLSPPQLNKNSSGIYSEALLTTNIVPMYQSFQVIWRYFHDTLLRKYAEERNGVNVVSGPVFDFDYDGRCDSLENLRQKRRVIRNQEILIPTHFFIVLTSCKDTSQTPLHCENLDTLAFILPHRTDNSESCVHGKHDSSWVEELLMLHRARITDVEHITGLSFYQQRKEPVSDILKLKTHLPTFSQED
Description: ENPP1 activity assay using p-Nitrophenyl-5′-TMP as a substrate. It is filed as biochemical. The essentials: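 Percent inhibition, set against uninhibited-enzyme and blank wells, was fitted to a four-parameter variable-slope model for IC50. Chromogenic read-out was p-nitrophenol released from TMP-pNP, added as a 2 mM […] solution for 1 h at RT. Before that, 20 ng soluble ENPP1 sat 30 min with compound.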

In data set [2] the target is T1, human soluble ENPP1. Briefly: ENPP1 activity assay using p-Nitrophenyl-5′-AMP as a substrate. It is filed as biochemical. The essentials:
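Absorbance at 405 nm tracks p-nitrophenol from AMP-pNP hydrolysis after 1 h at room temperature, substrate added as 3 mM (2× final) following 30 min enzyme–compound preincubation. Enzyme: 35 ng human soluble ENPP1. IC50 fitted (variable-slope four-parameter) from percent inhibition normalized to max and blank.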

The next data set is described as follows: Pharmacokinetics in mice. Type of data set: in vivo. The following applies: mouse, plasma, male CD-1 mice; for AUC / clearance / half-life / Vd: 1 mg/kg, iv; for Vd: read-out: Vdss; for bioavailability: oral gavage (PO) at 5 mg/kg vs IV 1 mg/kg. On the procedure:
A dosing solution of test sample was prepared at 1.0 mg/mL in 5% DMSO/40% PEG400/55% water and administered to male CD-1 mice (4-6 weeks old, 20-30 grams, 3 animals each group) via intravenous (IV) bolus at 1 mg/kg and by oral gavage (PO) at 5 mg/kg. Blood samples (˜0.03 mL each time point) were collected via the jugular vein into tubes containing sodium heparin as the anticoagulant at 0.033, 0.083, 0.25, 0.5, 1, 2, 4, 8 and 24 hours post dose for IV administration and 0.083, 0.25, 0.5, 1, 2, 4, 8 and 24 hours post dose for PO administration. The blood samples were then centrifuged for 5 minutes in a centrifuge refrigerated at 4° C. The resultant plasma samples were analyzed using LC/MS/MS to determine concentrations of test sample. Non-compartmental model with WinNonlin (Phoenix™, version 8.0) software was used to calculate pharmacokinetic (PK) parameters.

Another data set has as its target T2, ENPP-1, MDA-MB-231 cells (Homo sapiens, UniProt P22413).
T2 sequence (P22413 1-925): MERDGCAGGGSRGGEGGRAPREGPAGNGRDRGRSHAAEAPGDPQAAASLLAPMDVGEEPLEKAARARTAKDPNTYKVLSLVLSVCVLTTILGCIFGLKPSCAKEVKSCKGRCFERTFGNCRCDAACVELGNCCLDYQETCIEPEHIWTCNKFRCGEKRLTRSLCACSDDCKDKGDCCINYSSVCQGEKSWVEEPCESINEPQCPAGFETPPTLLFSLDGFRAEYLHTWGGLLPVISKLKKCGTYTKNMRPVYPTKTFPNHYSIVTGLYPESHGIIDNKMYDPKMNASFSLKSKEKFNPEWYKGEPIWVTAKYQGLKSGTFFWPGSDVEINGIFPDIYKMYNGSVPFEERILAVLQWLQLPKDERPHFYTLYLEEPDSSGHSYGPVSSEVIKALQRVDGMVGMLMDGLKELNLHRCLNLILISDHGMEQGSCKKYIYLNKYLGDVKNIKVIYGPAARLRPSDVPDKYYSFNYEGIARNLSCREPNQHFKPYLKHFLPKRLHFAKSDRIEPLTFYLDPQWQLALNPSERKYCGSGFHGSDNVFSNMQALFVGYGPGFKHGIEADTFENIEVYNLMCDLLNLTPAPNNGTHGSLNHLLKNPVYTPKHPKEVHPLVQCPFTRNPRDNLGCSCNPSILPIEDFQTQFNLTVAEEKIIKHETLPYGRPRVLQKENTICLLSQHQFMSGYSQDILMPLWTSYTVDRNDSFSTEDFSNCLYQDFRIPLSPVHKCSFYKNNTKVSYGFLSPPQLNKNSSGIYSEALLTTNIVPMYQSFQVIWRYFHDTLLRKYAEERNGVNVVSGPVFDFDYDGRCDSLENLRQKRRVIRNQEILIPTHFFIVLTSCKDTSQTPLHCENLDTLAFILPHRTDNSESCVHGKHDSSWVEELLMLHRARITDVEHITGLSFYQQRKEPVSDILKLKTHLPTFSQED
Briefly: cell-based. As to conditions: for inhibition at 20 µM: MDA-MB-231, read-out: % Inhibition (at 20 μM).

The values below come from US11673889B2, “Substituted imidazo[4,5-c][1,8]naphthyridines as phosphodiesterase inhibitors” (Nanjing Zhengxiang Pharmaceuticals Co., Ltd., priority 2019, dated 2023).

In turn, `COc1ccc2c(ncc3nc(C)n(Cc4ccc(S(N)(=O)=O)cn4)c32)n1` [Compound 72, 6-((7-methoxy-2-methyl-1H-imidazo[4,5-c][1,8]naphthyridin-1-yl)methyl)pyridine-3-sulfonamide] yielded an IC50 against human soluble ENPP1 [1] of 0.58 nM. In addition, at human soluble ENPP1 [2], the IC50 was found to be 1.2 nM. In the data set “Pharmacokinetics in mice”, the AUC is 303 ng·h/mL, the clearance was 56 mL/min/kg, the half-life is 1.4 h and the Vd is 2.9 L/kg. Also, at ENPP-1, MDA-MB-231 cells, half-maximal inhibition (IC50) required 340 nM and the inhibition at 20 µM is 81%.

Molecule `COc1ccc2c(ncc3nc(C)n(Cc4ccc(S(N)(=O)=O)nc4)c32)n1` [Compound 73, 5-((7-methoxy-2-methyl-1H-imidazo[4,5-c][1,8]naphthyridin-1-yl)methyl)pyridine-2-sulfonamide] showed an IC50 against human soluble ENPP1 [1] of 0.36 nM. On human soluble ENPP1 [2], this molecule showed an IC50 of 0.96 nM. In addition, in “Pharmacokinetics in mice”, the AUC was 267 ng·h/mL, the clearance stood at 63 mL/min/kg, the half-life was 0.6 h and the Vd was 1.6 L/kg. At ENPP-1, MDA-MB-231 cells, the IC50 turned out to be 270 nM and the inhibition at 20 µM came out at 81%.

The molecule `COc1ccc2c(ncc3nc(C4CC4)n(Cc4ccc(S(N)(=O)=O)cn4)c32)n1` [Compound 74, 6-((2-cyclopropyl-7-methoxy-1H-imidazo[4,5-c][1,8]naphthyridin-1-yl)methyl)pyridine-3-sulfonamide] gave an IC50 at human soluble ENPP1 [1] of 0.09 nM. Besides, the IC50 at human soluble ENPP1 [2] turned out to be 0.12 nM. In addition, in the data set “Pharmacokinetics in mice”, the AUC is 138 ng·h/mL, the clearance turned out to be 123 mL/min/kg, the half-life was 1.4 h and the Vd was 14 L/kg. Moreover, at ENPP-1, MDA-MB-231 cells, the concentration for half-maximal inhibition (IC50) worked out at 85 nM and the inhibition at 20 µM turned out to be 81%.

As for `COc1ccc2c(ncc3nc(CN4CCOCC4)n(Cc4ccc(S(N)(=O)=O)c(F)c4)c32)n1` [Compound 80, 2-fluoro-4-((7-methoxy-2-(morpholinomethyl)-1H-imidazo[4,5-c][1,8]naphthyridin-1-yl)methyl)benzenesulfonamide], on human soluble ENPP1 [1], the IC50 is 1.8 nM. On human soluble ENPP1 [2], this molecule returned an IC50 of 6.4 nM. Moreover, in the data set “Pharmacokinetics in mice”, the AUC worked out at 158 ng·h/mL, the clearance amounted to 107 mL/min/kg, the half-life is 0.13 h and the Vd was 1 L/kg. Moreover, at ENPP-1, MDA-MB-231 cells, the 50% inhibitory concentration (IC50) turned out to be 1800 nM and the inhibition at 20 µM was 75%.

On to `COc1ccc2c(ncc3nc(CC#N)n(Cc4ccc(S(N)(=O)=O)c(F)c4)c32)n1` [Compound 82, 4-((2-(cyanomethyl)-7-methoxy-1H-imidazo[4,5-c][1,8]naphthyridin-1-yl)methyl)-2-fluorobenzenesulfonamide], for which the IC50 at human soluble ENPP1 [1] is 0.8 nM. The molecule also displayed an IC50 at human soluble ENPP1 [2] of 2.4 nM. For the same molecule, in the data set “Pharmacokinetics in mice”, the AUC is 253 ng·h/mL, the clearance was 66 mL/min/kg, the half-life was 0.86 h and the Vd amounted to 2.2 L/kg. At ENPP-1, MDA-MB-231 cells, it took 560 nM to reach half-maximal inhibition (IC50) and the inhibition at 20 µM amounted to 82%.

`COc1ccc2c(ncc3[nH]c(=O)n(Cc4ccc(S(N)(=O)=O)cc4F)c32)n1` [Compound 102, 3-fluoro-4-((7-methoxy-2-oxo-2,3-dihydro-1H-imidazo[4,5-c][1,8]naphthyridin-1-yl)methyl)benzenesulfonamide]: the IC50 against human soluble ENPP1 [1] came to 0.51 nM. This molecule came in with an IC50 against human soluble ENPP1 [2] of 0.74 nM. Further, in the data set “Pharmacokinetics in mice”, the exposure (AUC) turned out to be 657 ng·h/mL, the clearance is 26 mL/min/kg, the half-life was 5.1 h and the Vd was 5.2 L/kg. Further, the bioavailability in the data set “Pharmacokinetics in mice” turned out to be 8.4%. For the same molecule, at ENPP-1, MDA-MB-231 cells, it took 430 nM to reach half-maximal inhibition (IC50) and the inhibition at 20 µM turned out to be 86%.

In the case of `COc1ccc2c(ncc3c2n(Cc2c(F)cc(S(N)(=O)=O)cc2F)c(=O)n3C)n1` [Compound 114, 3,5-difluoro-4-((7-methoxy-3-methyl-2-oxo-2,3-dihydro-1H-imidazo[4,5-c][1,8]naphthyridin-1-yl)methyl)benzenesulfonamide], the IC50 on human soluble ENPP1 [1] turned out to be 0.27 nM. This molecule displayed an IC50 against human soluble ENPP1 [2] of 0.23 nM. For the same molecule, in “Pharmacokinetics in mice”, the exposure (AUC) was 454 ng·h/mL, the clearance is 37 mL/min/kg, the half-life is 3.9 h and the Vd amounted to 12 L/kg. The molecule further returned a bioavailability in the data set “Pharmacokinetics in mice” of 33%. Besides, on ENPP-1, MDA-MB-231 cells, half-maximal inhibition (IC50) was put at 80 nM and the inhibition at 20 µM was found to be 77%.

Take `COc1ccc2c(ncc3nnn(Cc4ccc(S(N)(=O)=O)cn4)c32)n1` [Compound 119, 6-((7-methoxy-1H-[1,2,3]triazolo[4,5-c][1,8]naphthyridin-1-yl)methyl)pyridine-3-sulfonamide]: the 50% inhibitory concentration (IC50) against human soluble ENPP1 [1] was determined as 0.7 nM. For the same molecule, half-maximal inhibition against human soluble ENPP1 [2] (IC50) was put at 1.1 nM. For the same molecule, in the data set “Pharmacokinetics in mice”, the AUC amounted to 301 ng·h/mL, the clearance worked out at 56 mL/min/kg, the half-life was 1.4 h and the Vd is 4.5 L/kg. Moreover, at ENPP-1, MDA-MB-231 cells, the IC50 was found to be 120 nM and the inhibition at 20 µM stood at 83%.

Molecule `COc1ccc2c(ncc3nnn(Cc4ccc(S(N)(=O)=O)c(F)c4)c32)n1` [Compound 120, 2-fluoro-4-((7-methoxy-1H-[1,2,3]triazolo[4,5-c][1,8]naphthyridin-1-yl)methyl)benzenesulfonamide] registered a concentration for half-maximal inhibition (IC50) at human soluble ENPP1 [1] of 1.78 nM. The molecule further registered an IC50 at human soluble ENPP1 [2] of 4.4 nM. For the same molecule, in “Pharmacokinetics in mice”, the AUC was 260 ng·h/mL, the clearance came out at 65 mL/min/kg, the half-life was 2 h and the Vd is 8.9 L/kg. At ENPP-1, MDA-MB-231 cells, the IC50 came out at 1100 nM and the inhibition at 20 µM came out at 79%.

Molecule `COc1ccc2c(ncc3cnn(Cc4ccc(S(N)(=O)=O)c(F)c4)c32)n1` [Compound 122a, 2-fluoro-4-((7-methoxy-1H-pyrazolo[4,3-c][1,8]naphthyridin-1-yl)methyl)benzenesulfonamide] had an IC50 at human soluble ENPP1 [1] of 1.6 nM. Also, on human soluble ENPP1 [2], the IC50 came out at 4.3 nM. In the data set “Pharmacokinetics in mice”, the AUC came to 170 ng·h/mL, the clearance came out at 100 mL/min/kg, the half-life was 0.33 h and the Vd came out at 2 L/kg. At ENPP-1, MDA-MB-231 cells, the IC50 came to 1700 nM and the inhibition at 20 µM is 74%.
